Reference: patent US9012492B2, “Apocynin-lipoic acid conjugates and uses thereof” (priority 2011, dated 2015)
Read-outs that look alike come from different tables or passages of the source.

Key:
[1] = test system: dog liver microsomes (DLM); assay: Metabolic stability using dog liver microsomes; type: in vitro ADME
Description: Table 9 summarizes the experimental conditions used in the studies of the metabolic stability of the compound of Formula (Ia) using dog liver microsomes and human liver microsomes.

[2] = Stability in methanolic solution; type: physicochemical; settings: stock 1 mg/mL in methanol
[3] = Stability in sodium phosphate buffer (HPLC); type: physicochemical; settings: for stability in sodium phosphate buffer: 50 mM, HPLC; for half-life: buffer without microsomes and without NADPH; for half-life / % Metabolism in 30 minutes / CLintr (mL/min/g liver): matrix buffer (no microsomes, no NADPH)
Procedure: The stability of the compound of Formula (Ia) in a sodium phosphate buffer (50 mM, pH 7.4) was evaluated using HPLC. […] Area counts of apocynin and lipoid acid were found in 0 minute samples and were generally constant until the last time point measured (see: FIGS. 11-12 and Tables 5-6).

Structure (SMILES): COc1cc(C(C)=O)ccc1OC(=O)CCCCC1CCSS1 (stereo not shown) [compound of Formula (Ia)]
- % Metabolism in 30 minutes ([1]; DLM control (without NADPH)): 0%
- CLintr (mL/min/g liver) ([1]; DLM control (without NADPH)): >67 mL/min/g liver
- % Metabolism in 30 minutes ([1]; DLM reaction (with NADPH)): 0%
- CLintr (mL/min/g liver) ([1]; DLM reaction (with NADPH)): >67 mL/min/g liver
- % Change with time (Un-treated plasma, 0 h): 100.00%
- % Change with time (Un-treated plasma, <1 min): 0.00%
- % remaining in spiked plasma sample (immediate extraction, no stabilizer): ~0%
- % Change with time (plasma + Formic acid, 0 h): 100.00%
- % Change with time (plasma + Formic acid, 10 min): 2.00%
- % Change with time (plasma + Formic acid, <1 min): 15.00%
- % Change with time (plasma + Sodium fluoride, 0 h): 100.00%
- % Change with time (plasma + Sodium fluoride, <1 min): 2.00%
- stability in biological matrix (rat/dog blood and plasma): unstable
- time stabilized in plasma (with combination of DV and FA): up to 4 h
- stability in methanolic solution [2]: stable
- % Remaining ([3]; 0.5 μM in sodium phosphate buffer (50 mM, pH 7.4), 0 min, Set-1): 100%
- % Remaining ([3]; 0.5 μM in sodium phosphate buffer (50 mM, pH 7.4), 3 min, Set-1): 64%
- % Remaining ([3]; 0.5 μM in sodium phosphate buffer (50 mM, pH 7.4), 6 min, Set-1): 50%
- % Remaining ([3]; 0.5 μM in sodium phosphate buffer (50 mM, pH 7.4), 9 min, Set-1): 55%
- % Remaining ([3]; 0.5 μM in sodium phosphate buffer (50 mM, pH 7.4), 12 min, Set-1): 50%
- % Remaining ([3]; 0.5 μM in sodium phosphate buffer (50 mM, pH 7.4), 15 min, Set-1): 50%
- % Remaining ([3]; 0.5 μM in sodium phosphate buffer (50 mM, pH 7.4), 18 min, Set-1): 50%
- % Remaining ([3]; 0.5 μM in sodium phosphate buffer (50 mM, pH 7.4), 21 min, Set-1): 73%
- % Remaining ([3]; 0.5 μM in sodium phosphate buffer (50 mM, pH 7.4), 27 min, Set-1): 64%
- % Remaining ([3]; 0.5 μM in sodium phosphate buffer (50 mM, pH 7.4), 30 min, Set-1): 77%
- stability in sodium phosphate buffer ([3]; 0.5 μM, pH 7.4): stable
- % Remaining ([3]; 10 μM in sodium phosphate buffer (50 mM, pH 7.4), 0 min, Set-1): 100%
- % Remaining ([3]; 10 μM in sodium phosphate buffer (50 mM, pH 7.4), 3 min, Set-1): 83%
- % Remaining ([3]; 10 μM in sodium phosphate buffer (50 mM, pH 7.4), 6 min, Set-1): 73%
- % Remaining ([3]; 10 μM in sodium phosphate buffer (50 mM, pH 7.4), 9 min, Set-1): 83%
- % Remaining ([3]; 10 μM in sodium phosphate buffer (50 mM, pH 7.4), 12 min, Set-1): 73%
- % Remaining ([3]; 10 μM in sodium phosphate buffer (50 mM, pH 7.4), 15 min, Set-1): 74%
- % Remaining ([3]; 10 μM in sodium phosphate buffer (50 mM, pH 7.4), 18 min, Set-1): 71%
- % Remaining ([3]; 10 μM in sodium phosphate buffer (50 mM, pH 7.4), 21 min, Set-1): 76%
- % Remaining ([3]; 10 μM in sodium phosphate buffer (50 mM, pH 7.4), 27 min, Set-1): 57%
- % Remaining ([3]; 10 μM in sodium phosphate buffer (50 mM, pH 7.4), 30 min, Set-1): 79%
- stability in sodium phosphate buffer ([3]; 10 μM, pH 7.4): stable
- half-life ([3]; DLM/HLM study): 23 min
- half-life ([3]; rat liver microsome study): > 30 min
- % Remaining ([3]; buffer, 0 h, 0.5 μM, pH 7.4): 100%
- Apocynin area counts, % Remaining ([3]; buffer, 0 h, 0.5 μM, pH 7.4): 100%
- Lipoic acid area counts, % Remaining ([3]; buffer, 0 h, 0.5 μM, pH 7.4): 100%
- % Remaining ([3]; buffer, 0 h, 10 μM, pH 7.4): 100%
- Apocynin area counts, % Remaining ([3]; buffer, 0 h, 10 μM, pH 7.4): 100%
- Lipoic acid area counts, % Remaining ([3]; buffer, 0 h, 10 μM, pH 7.4): 100%
- % Remaining ([3]; buffer, 0.05 h, 0.5 μM, pH 7.4): 71%
- Apocynin area counts, % Remaining ([3]; buffer, 0.05 h, 0.5 μM, pH 7.4): 78%
- Lipoic acid area counts, % Remaining ([3]; buffer, 0.05 h, 0.5 μM, pH 7.4): 103%
- % Remaining ([3]; buffer, 0.05 h, 10 μM, pH 7.4): 92%
- Apocynin area counts, % Remaining ([3]; buffer, 0.05 h, 10 μM, pH 7.4): 96%
- Lipoic acid area counts, % Remaining ([3]; buffer, 0.05 h, 10 μM, pH 7.4): 100%
- % Remaining ([3]; buffer, 0.1 h, 0.5 μM, pH 7.4): 59%
- Apocynin area counts, % Remaining ([3]; buffer, 0.1 h, 0.5 μM, pH 7.4): 68%
- Lipoic acid area counts, % Remaining ([3]; buffer, 0.1 h, 0.5 μM, pH 7.4): 99%
- % Remaining ([3]; buffer, 0.1 h, 10 μM, pH 7.4): 80%
- Apocynin area counts, % Remaining ([3]; buffer, 0.1 h, 10 μM, pH 7.4): 91%
- Lipoic acid area counts, % Remaining ([3]; buffer, 0.1 h, 10 μM, pH 7.4): 105%
- % Remaining ([3]; buffer, 0.15 h, 0.5 μM, pH 7.4): 47%
- Apocynin area counts, % Remaining ([3]; buffer, 0.15 h, 0.5 μM, pH 7.4): 65%
- Lipoic acid area counts, % Remaining ([3]; buffer, 0.15 h, 0.5 μM, pH 7.4): 91%
- % Remaining ([3]; buffer, 0.15 h, 10 μM, pH 7.4): 87%
- Apocynin area counts, % Remaining ([3]; buffer, 0.15 h, 10 μM, pH 7.4): 94%
- Lipoic acid area counts, % Remaining ([3]; buffer, 0.15 h, 10 μM, pH 7.4): 113%
- % Remaining ([3]; buffer, 0.2 h, 0.5 μM, pH 7.4): 53%
- Apocynin area counts, % Remaining ([3]; buffer, 0.2 h, 0.5 μM, pH 7.4): 71%
- Lipoic acid area counts, % Remaining ([3]; buffer, 0.2 h, 0.5 μM, pH 7.4): 89%
- % Remaining ([3]; buffer, 0.2 h, 10 μM, pH 7.4): 76%
- Apocynin area counts, % Remaining ([3]; buffer, 0.2 h, 10 μM, pH 7.4): 95%
- Lipoic acid area counts, % Remaining ([3]; buffer, 0.2 h, 10 μM, pH 7.4): 118%
- % Remaining ([3]; buffer, 0.25 h, 0.5 μM, pH 7.4): 65%
- Apocynin area counts, % Remaining ([3]; buffer, 0.25 h, 0.5 μM, pH 7.4): 68%
- Lipoic acid area counts, % Remaining ([3]; buffer, 0.25 h, 0.5 μM, pH 7.4): 106%
- % Remaining ([3]; buffer, 0.25 h, 10 μM, pH 7.4): 72%
- Apocynin area counts, % Remaining ([3]; buffer, 0.25 h, 10 μM, pH 7.4): 86%
- Lipoic acid area counts, % Remaining ([3]; buffer, 0.25 h, 10 μM, pH 7.4): 114%
- % Remaining ([3]; buffer, 0.3 h, 0.5 μM, pH 7.4): 59%
- Apocynin area counts, % Remaining ([3]; buffer, 0.3 h, 0.5 μM, pH 7.4): 70%
- Lipoic acid area counts, % Remaining ([3]; buffer, 0.3 h, 0.5 μM, pH 7.4): 96%
- % Remaining ([3]; buffer, 0.3 h, 10 μM, pH 7.4): 71%
- Apocynin area counts, % Remaining ([3]; buffer, 0.3 h, 10 μM, pH 7.4): 80%
- Lipoic acid area counts, % Remaining ([3]; buffer, 0.3 h, 10 μM, pH 7.4): 121%
- % Remaining ([3]; buffer, 0.35 h, 0.5 μM, pH 7.4): 76%
- Apocynin area counts, % Remaining ([3]; buffer, 0.35 h, 0.5 μM, pH 7.4): 82%
- Lipoic acid area counts, % Remaining ([3]; buffer, 0.35 h, 0.5 μM, pH 7.4): 117%
- % Remaining ([3]; buffer, 0.35 h, 10 μM, pH 7.4): 69%
- Apocynin area counts, % Remaining ([3]; buffer, 0.35 h, 10 μM, pH 7.4): 82%
- Lipoic acid area counts, % Remaining ([3]; buffer, 0.35 h, 10 μM, pH 7.4): 127%
- % Remaining ([3]; buffer, 0.45 h, 0.5 μM, pH 7.4): 71%
- Apocynin area counts, % Remaining ([3]; buffer, 0.45 h, 0.5 μM, pH 7.4): 79%
- Lipoic acid area counts, % Remaining ([3]; buffer, 0.45 h, 0.5 μM, pH 7.4): 119%
- % Remaining ([3]; buffer, 0.45 h, 10 μM, pH 7.4): 64%
- Apocynin area counts, % Remaining ([3]; buffer, 0.45 h, 10 μM, pH 7.4): 80%
- Lipoic acid area counts, % Remaining ([3]; buffer, 0.45 h, 10 μM, pH 7.4): 134%
- % Remaining ([3]; buffer, 0.5 h, 0.5 μM, pH 7.4): 94%
- Apocynin area counts, % Remaining ([3]; buffer, 0.5 h, 0.5 μM, pH 7.4): 85%
- Lipoic acid area counts, % Remaining ([3]; buffer, 0.5 h, 0.5 μM, pH 7.4): 151%
- % Remaining ([3]; buffer, 0.5 h, 10 μM, pH 7.4): 71%
- Apocynin area counts, % Remaining ([3]; buffer, 0.5 h, 10 μM, pH 7.4): 78%
- Lipoic acid area counts, % Remaining ([3]; buffer, 0.5 h, 10 μM, pH 7.4): 141%
- % Metabolism in 30 minutes ([3]; DLM/HLM study): 34%
- CLintr (mL/min/g liver) ([3]; DLM/HLM study): 3.2 mL/min/g liver
- % Metabolism in 30 minutes ([3]; rat liver microsome study): 21%
- CLintr (mL/min/g liver) ([3]; rat liver microsome study): 2.3 mL/min/g liver
